Measurements reported in US11034672B1, “Tyrosine kinase inhibitor compositions, methods of making and methods of use” (Black Diamond Therapeutics, Inc., priority 2018, dated 2021).

Experiments:
Format in all cases: cell-based
HER2 WT [1] = biological target: T1, HER2 WT (Homo sapiens, UniProt P04626); test: BaF3 cell proliferation assay, HER2 WT (Table B); conditions: potency code, 3 days, CellTiterGlo, read-out: HER2 WT (Activity for Inhibiting HER2)
HER2 YVMA [2] = biological target: T2, HER2 YVMA (Homo sapiens, UniProt P04626, INS775YVMA); test: BaF3 cell proliferation assay, HER2 YVMA (Table B); conditions: potency code, 3 days, CellTiterGlo, read-out: HER2 YVMA (Activity for Inhibiting HER2)
T2 construct: expressed in transfected cells; host or cells: BaF3 (murine pro-B)

HER2 YVMA [3] = biological target: T2, HER2 YVMA; test: Activity for inhibiting HER2 (Table B), HER2 YVMA; conditions: read-out: HER2 YVMA, potency code (IC50)
Protocol: (§1) EC50 values were determined with the same application.

HER2 S310F [4] = biological target: T3, HER2 S310F (Homo sapiens, UniProt P04626, S310F); test: BaF3 cell proliferation assay, HER2 S310F (Table B); conditions: potency code, 3 days, CellTiterGlo, read-out: HER2 S310F (Activity for Inhibiting HER2)
T3 construct: expressed in transfected cells; host or cells: BaF3 (murine pro-B)

EGFR WT [5] = biological target: T4, EGFR WT (Homo sapiens, UniProt P00533); test: Activity for inhibiting EGFR (Table A), EGFR WT; conditions: read-out: EGFR WT, potency code (IC50)
EGFR V3 [6] = biological target: T5, EGFR V3 (Homo sapiens, UniProt P00533, DELINS30-297G); test: BaF3 cell proliferation assay, EGFR V3 (Table A); conditions: potency code, 3 days, CellTiterGlo, read-out: EGFR V3 (Activity for Inhibiting EGFR)
T5 construct: expressed in transfected cells; host or cells: BaF3 (murine pro-B), retroviral pMXs-IRES-Blasticidin
In short: (§2)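 Mouse BaF3 cells were retrovirally transduced (pMXs-IRES-Blasticidin, VSV-G pseudotyped virus from HEK 293T) with the human EGFR or HER2 variant, selected in 10 μg/ml Blasticidin for one week, then made IL-3 independent. EC50 values come from proliferation of these lines.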

EGFR V3 [7] = biological target: T5, EGFR V3; test: Activity for inhibiting EGFR (Table A), EGFR V3 (EGFR-Viii); conditions: read-out: EGFR V3, potency code (IC50)
EGFR WT [8] = biological target: T4, EGFR WT; test: BaF3 cell proliferation assay, EGFR WT (Table A); conditions: potency code, 3 days, CellTiterGlo, read-out: EGFR WT (Activity for Inhibiting EGFR)
In short: as §2

HER2 S310F [9] = biological target: T3, HER2 S310F; test: Activity for inhibiting HER2 (Table B), HER2 S310F; conditions: read-out: HER2 S310F, potency code (IC50)
Protocol: as §1

HER2 WT [10] = biological target: T1, HER2 WT; test: Activity for inhibiting HER2 (Table B), HER2 WT
[11] = Table B, read-out: HER2 WT, potency code (IC50)
[12] = text lists of compounds, read-out: IC50 value for inhibiting wild-type HER2

T3 sequence (P04626 23-1255 S310F): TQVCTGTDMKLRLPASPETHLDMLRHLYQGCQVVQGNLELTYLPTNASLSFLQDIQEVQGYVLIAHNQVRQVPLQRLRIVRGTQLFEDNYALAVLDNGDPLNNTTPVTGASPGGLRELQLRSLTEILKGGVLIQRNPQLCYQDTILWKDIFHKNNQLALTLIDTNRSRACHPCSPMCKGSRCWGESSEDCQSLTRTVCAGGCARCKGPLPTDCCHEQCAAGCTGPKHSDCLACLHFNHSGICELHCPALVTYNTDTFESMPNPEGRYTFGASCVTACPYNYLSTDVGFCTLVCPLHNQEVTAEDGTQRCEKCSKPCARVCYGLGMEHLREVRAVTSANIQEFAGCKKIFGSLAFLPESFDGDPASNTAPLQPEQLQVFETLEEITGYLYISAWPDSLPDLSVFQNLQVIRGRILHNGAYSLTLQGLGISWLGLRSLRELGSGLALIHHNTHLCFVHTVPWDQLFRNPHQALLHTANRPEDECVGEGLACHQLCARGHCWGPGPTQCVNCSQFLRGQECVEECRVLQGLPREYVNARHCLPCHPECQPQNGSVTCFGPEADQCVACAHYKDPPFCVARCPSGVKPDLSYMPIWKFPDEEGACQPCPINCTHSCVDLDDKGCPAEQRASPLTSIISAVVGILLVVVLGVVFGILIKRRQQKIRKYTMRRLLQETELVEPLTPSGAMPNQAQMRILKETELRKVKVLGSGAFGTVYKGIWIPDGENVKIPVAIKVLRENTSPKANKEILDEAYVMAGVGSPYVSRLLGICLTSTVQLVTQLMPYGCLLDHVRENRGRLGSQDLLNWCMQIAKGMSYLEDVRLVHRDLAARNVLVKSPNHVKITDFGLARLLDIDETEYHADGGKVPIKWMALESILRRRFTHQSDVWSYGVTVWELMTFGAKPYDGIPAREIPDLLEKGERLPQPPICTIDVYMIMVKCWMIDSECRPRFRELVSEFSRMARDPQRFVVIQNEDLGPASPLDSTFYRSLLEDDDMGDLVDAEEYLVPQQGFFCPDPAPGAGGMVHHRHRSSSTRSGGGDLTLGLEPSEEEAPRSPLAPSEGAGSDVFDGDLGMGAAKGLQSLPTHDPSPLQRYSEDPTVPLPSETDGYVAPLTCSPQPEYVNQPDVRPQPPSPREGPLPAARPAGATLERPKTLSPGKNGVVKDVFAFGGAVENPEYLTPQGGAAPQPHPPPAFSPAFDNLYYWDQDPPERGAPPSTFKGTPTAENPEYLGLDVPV
T1 sequence (P04626 23-1255): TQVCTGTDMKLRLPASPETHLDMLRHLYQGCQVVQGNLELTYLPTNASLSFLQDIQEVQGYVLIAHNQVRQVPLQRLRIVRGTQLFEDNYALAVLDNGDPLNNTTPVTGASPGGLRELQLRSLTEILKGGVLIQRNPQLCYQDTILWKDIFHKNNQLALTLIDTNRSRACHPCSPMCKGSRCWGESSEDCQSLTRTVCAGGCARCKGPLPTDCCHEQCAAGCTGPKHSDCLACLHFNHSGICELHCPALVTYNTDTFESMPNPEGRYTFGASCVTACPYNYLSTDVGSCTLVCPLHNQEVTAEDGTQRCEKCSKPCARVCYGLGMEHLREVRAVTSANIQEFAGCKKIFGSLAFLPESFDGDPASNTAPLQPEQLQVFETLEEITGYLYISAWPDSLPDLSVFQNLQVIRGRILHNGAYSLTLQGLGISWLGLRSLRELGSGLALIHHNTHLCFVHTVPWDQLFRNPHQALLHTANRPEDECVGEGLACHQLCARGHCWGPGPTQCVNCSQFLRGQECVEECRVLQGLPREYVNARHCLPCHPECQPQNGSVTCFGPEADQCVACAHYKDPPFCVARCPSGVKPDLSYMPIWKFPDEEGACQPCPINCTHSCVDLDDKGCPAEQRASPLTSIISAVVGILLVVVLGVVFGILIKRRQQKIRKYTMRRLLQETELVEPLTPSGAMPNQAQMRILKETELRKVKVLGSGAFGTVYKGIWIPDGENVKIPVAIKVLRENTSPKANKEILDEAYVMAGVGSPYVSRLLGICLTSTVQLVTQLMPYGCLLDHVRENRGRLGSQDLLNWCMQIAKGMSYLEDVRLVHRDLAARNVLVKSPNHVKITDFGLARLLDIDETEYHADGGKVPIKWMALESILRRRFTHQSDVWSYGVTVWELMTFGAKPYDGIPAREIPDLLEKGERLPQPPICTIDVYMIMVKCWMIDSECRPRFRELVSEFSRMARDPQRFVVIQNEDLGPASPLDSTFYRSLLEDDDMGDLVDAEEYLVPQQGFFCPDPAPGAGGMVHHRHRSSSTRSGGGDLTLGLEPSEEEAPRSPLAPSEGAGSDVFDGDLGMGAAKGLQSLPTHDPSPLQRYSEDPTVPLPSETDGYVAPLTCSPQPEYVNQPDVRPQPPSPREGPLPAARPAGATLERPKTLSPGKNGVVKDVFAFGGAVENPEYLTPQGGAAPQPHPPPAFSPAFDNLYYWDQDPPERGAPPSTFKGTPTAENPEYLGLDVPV
T4 sequence (P00533 25-1210 N540K): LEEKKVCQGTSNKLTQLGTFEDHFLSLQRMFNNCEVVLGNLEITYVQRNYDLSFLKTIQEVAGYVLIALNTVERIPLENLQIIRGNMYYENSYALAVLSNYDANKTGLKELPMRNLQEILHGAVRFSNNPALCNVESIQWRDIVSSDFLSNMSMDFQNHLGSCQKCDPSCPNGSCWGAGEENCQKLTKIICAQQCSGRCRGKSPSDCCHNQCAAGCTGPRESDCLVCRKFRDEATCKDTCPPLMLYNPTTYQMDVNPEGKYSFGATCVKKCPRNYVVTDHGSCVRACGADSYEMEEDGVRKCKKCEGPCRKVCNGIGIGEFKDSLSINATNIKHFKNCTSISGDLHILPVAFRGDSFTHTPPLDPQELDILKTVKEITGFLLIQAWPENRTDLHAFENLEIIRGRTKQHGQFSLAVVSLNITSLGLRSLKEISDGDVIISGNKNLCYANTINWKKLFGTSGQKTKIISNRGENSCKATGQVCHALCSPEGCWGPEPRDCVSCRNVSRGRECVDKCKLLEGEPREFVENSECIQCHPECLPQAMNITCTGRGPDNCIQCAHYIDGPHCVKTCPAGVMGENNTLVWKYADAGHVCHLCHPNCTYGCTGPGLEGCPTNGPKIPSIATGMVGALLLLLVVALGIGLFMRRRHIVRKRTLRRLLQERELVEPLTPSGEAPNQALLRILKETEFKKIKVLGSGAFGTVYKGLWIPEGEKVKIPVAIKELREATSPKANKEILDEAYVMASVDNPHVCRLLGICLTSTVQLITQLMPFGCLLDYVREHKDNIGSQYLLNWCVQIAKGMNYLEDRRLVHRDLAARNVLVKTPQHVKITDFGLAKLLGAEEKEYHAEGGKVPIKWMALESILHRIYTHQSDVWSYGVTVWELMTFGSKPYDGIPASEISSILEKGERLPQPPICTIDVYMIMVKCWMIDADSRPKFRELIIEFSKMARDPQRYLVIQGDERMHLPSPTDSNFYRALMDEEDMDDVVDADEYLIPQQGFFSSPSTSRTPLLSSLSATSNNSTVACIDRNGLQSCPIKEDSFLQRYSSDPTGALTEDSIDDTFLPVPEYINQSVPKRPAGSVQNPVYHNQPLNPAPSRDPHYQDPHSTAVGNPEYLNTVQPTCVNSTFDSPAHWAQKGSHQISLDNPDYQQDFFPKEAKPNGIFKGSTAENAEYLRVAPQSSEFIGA
T5 sequence (P00533 with tags, fused parts or gaps DELINS30-297G): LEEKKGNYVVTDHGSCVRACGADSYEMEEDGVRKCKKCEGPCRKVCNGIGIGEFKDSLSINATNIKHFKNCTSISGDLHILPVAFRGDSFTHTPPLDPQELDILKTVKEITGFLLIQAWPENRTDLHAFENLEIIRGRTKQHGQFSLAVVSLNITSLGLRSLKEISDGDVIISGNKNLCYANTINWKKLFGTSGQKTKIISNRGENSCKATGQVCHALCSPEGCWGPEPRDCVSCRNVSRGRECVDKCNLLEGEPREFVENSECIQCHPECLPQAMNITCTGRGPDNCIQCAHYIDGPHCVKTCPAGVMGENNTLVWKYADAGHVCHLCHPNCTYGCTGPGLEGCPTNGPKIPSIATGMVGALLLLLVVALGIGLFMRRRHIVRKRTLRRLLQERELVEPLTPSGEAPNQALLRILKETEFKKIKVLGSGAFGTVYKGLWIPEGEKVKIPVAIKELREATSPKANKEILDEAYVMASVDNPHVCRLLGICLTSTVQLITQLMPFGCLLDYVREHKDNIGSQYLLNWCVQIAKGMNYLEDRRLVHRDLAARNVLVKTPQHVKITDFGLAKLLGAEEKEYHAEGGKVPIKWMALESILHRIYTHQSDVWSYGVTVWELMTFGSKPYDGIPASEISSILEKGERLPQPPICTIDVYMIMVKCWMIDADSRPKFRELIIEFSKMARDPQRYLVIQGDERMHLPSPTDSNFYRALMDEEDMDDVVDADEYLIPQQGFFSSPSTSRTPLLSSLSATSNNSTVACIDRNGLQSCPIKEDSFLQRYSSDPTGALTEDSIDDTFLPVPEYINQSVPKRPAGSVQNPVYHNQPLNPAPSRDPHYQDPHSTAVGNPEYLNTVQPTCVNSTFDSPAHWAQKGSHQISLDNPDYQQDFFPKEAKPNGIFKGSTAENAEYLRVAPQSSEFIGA

IC50 (HER2 WT [1]) [nM]	IC50 (HER2 YVMA [2]) [nM]	IC50 (HER2 YVMA [3]) [nM]	IC50 (HER2 S310F [4]) [nM]	IC50 (EGFR WT [5]) [nM]	IC50 (EGFR V3 [6]) [nM]	IC50 (EGFR V3 [7]) [nM]	IC50 (EGFR WT [8]) [nM]	IC50 (HER2 S310F [9]) [nM]	IC50 (HER2 WT [10]; [11]) [nM]	IC50 (HER2 WT [10]; [12]) [nM]	Structure (SMILES)
10 to 20	200 to 300	200 to 300	20 to 30	> 1000	50 to 100	50 to 100	> 1000	20 to 30	10 to 20	≤ 20	C=CC(=O)Nc1cc2c(Nc3ccc(OCc4ccccn4)c(Cl)c3)ncnc2cc1OCCn1ccnc1 [compound 10]
10 to 20			50 to 100	300 to 500	30 to 50	30 to 50	300 to 500	50 to 100	10 to 20	≤ 20	C=CC(=O)Nc1cc2c(Nc3ccc(OCc4ccccn4)c(Cl)c3)ncnc2cc1OCC1CCCN1C (stereo not drawn) [compound 14]
10 to 20			100 to 200	300 to 500	200 to 300	200 to 300	300 to 500	100 to 200	10 to 20	≤ 20	C=CC(=O)Nc1cc2c(Nc3ccc(OCc4ccccn4)c(Cl)c3)ncnc2cc1OC1CCNC1 (stereo not drawn) [compound 15]
< 5	30 to 50	30 to 50	20 to 30	200 to 300	20 to 30	20 to 30	200 to 300	20 to 30	< 5	≤ 5	C=CC(=O)Nc1cc2c(Nc3ccc(OCc4ccccn4)c(Cl)c3)ncnc2cc1OC1CCN(C)C1 (stereo not drawn) [compound 16]
5 to 10	50 to 100	50 to 100	20 to 30	300 to 500	20 to 30	20 to 30	300 to 500	20 to 30	5 to 10	≤ 10	C=CC(=O)Nc1cc2c(Nc3ccc(OCc4ccccn4)c(Cl)c3)ncnc2cc1O[C@H]1CCN(C)C1 [compound 18]
100 to 200			100 to 200	> 1000	100 to 200	100 to 200	> 1000	100 to 200	100 to 200		C=CC(=O)Nc1cc2c(Nc3ccc(OCc4cccc(C(F)(F)F)n4)c(Cl)c3)ncnc2cc1OCCN1CCOCC1 [compound 23]
< 5	50 to 100	50 to 100	10 to 20	300 to 500	20 to 30	20 to 30	300 to 500	10 to 20	< 5	≤ 5	C=CC(=O)Nc1cc2c(Nc3ccc(OCc4ccccn4)c(Cl)c3)ncnc2cc1OCCN1CCC(OC)C1 (stereo not drawn) [compound 29]
< 5	100 to 200	100 to 200	10 to 20		30 to 50	30 to 50	300 to 500	10 to 20	< 5	≤ 5	C=CC(=O)Nc1cc2c(Nc3ccc(OCc4ccccn4)c(Cl)c3)ncnc2cc1OCCN1CCC(O)C1 (stereo not drawn) [compound 30]
< 5	50 to 100	50 to 100	10 to 20	300 to 500	20 to 30	20 to 30	300 to 500	10 to 20	< 5	≤ 5	C=CC(=O)Nc1cc2c(Nc3ccc(OCc4ccccn4)c(Cl)c3)ncnc2cc1OCCN(C)CC [compound 32]
10 to 20	50 to 100	50 to 100	10 to 20	500 to 1000	30 to 50	30 to 50	500 to 1000	10 to 20	10 to 20	≤ 20	C=CC(=O)Nc1cc2c(Nc3ccc(OCc4ccccn4)c(Cl)c3)ncnc2cc1OCCN1CC(F)C1 [compound 34]
50 to 100			50 to 100	> 1000	100 to 200	100 to 200	> 1000	50 to 100	50 to 100		C=CC(=O)Nc1cc2c(Nc3ccc(Oc4cccc(Cl)c4)cc3)ncnc2cc1OCCN1CCOCC1 [compound 37]
5 to 10	50 to 100	50 to 100	20 to 30	300 to 500	30 to 50	30 to 50	300 to 500	20 to 30	5 to 10	≤ 10	C=CC(=O)Nc1cc2c(Nc3ccc(OCc4ccccn4)c(Cl)c3)ncnc2cc1OCCN1CC2(COC2)C1 [compound 38]
50 to 100			100 to 200	> 1000	100 to 200	100 to 200	> 1000	100 to 200	50 to 100		C=CC(=O)Nc1cc2c(Nc3ccc(OCc4ccccn4)c(Cl)c3)ncnc2cc1N1CCN2CCC1C2 (stereo not drawn) [compound 43]
50 to 100			300 to 500	300 to 500	100 to 200	100 to 200	300 to 500	300 to 500	50 to 100		C=CC(=O)Nc1cc2c(Nc3ccc(OCc4ccccn4)c(Cl)c3)ncnc2cc1N1CC(N2CCOCC2)C1 [compound 44]
20 to 30			100 to 200	300 to 500	50 to 100	50 to 100	300 to 500	100 to 200	20 to 30	≤ 50	C=CC(=O)Nc1cc2c(Nc3ccc(OCc4ccccn4)c(Cl)c3)ncnc2cc1N1CCC2(CCN(C)C2)C1 (stereo not drawn) [compound 46]
100 to 200			300 to 500	> 1000	200 to 300	200 to 300	> 1000	300 to 500	100 to 200		C=CC(=O)Nc1cc2c(Nc3ccc(OCc4ccccn4)c(Cl)c3)ncnc2cc1N(C)C1CCN(C)C1 (stereo not drawn) [compound 48]
50 to 100			100 to 200	> 1000	100 to 200	100 to 200	> 1000	100 to 200	50 to 100		C=CC(=O)Nc1cc2c(Nc3ccc(OCc4ccccn4)c(Cl)c3)ncnc2cc1N1CC2CCN(C)C2C1 (stereo not drawn) [compound 49]
100 to 200			300 to 500	> 1000	200 to 300	200 to 300	> 1000	300 to 500	100 to 200		C=CC(=O)Nc1cc2c(Nc3ccc(OCc4ccccn4)cn3)ncnc2cc1OCCN1CCOCC1 [compound 58]
30 to 50			100 to 200	300 to 500	30 to 50	30 to 50	300 to 500	100 to 200	30 to 50	≤ 50	C=CC(=O)Nc1cc2c(Nc3ccc(OCc4ccccn4)cc3F)ncnc2cc1OC1CCN(C)C1 (stereo not drawn) [compound 59]
10 to 20	50 to 100	50 to 100	10 to 20	500 to 1000	20 to 30	20 to 30	500 to 1000	10 to 20	10 to 20	≤ 20	C=CC(=O)Nc1cc2c(Nc3ccc(OCc4ccccn4)c(Cl)c3)ncnc2cc1C#CC(C)(C)N1CCN(C)CC1 [compound 65]
100 to 200			200 to 300	> 1000	50 to 100	50 to 100	> 1000	200 to 300	100 to 200		C=CC(=O)Nc1cc2c(Nc3ccc(Oc4ccc(Cl)cc4)cc3)ncnc2cc1OCCN1CCOCC1 [compound 74]
